Measurements taken from publication PMC11134608, “UBR5 forms ligand-dependent complexes on chromatin to regulate nuclear hormone receptor stability” (Molecular cell, 2023).

What was measured:
ER reporter = ER reporter degradation; format: cell-based, human; conditions: 1 μM (legend, SERDs)
Protocol: Reporter cell lines were seeded in triplicate at a density of 1 million cells/ml in 100 μl per well in a 96 well plate and measured once. Ligand was added by Digital Dispenser (Tecan), and incubated at 37°C for the appropriate time before reading by flow cytometry. Cells were analyzed for GFP vs mCherry expression. GFP expression was normalized to mCherry signal and ligand treatments were compared to DMSO controls.

[1] = tested on: ER reporter (E3 ligase dependence); experiment: Targeted CRISPR screens, ER reporter K562 cells: E3 ligase used; format: cell-based, human; conditions: for E3 ligase used for ER degradation: K562 ER reporter, CRISPR screen; for E3 Ligase (Table S2): Supplemental Table S2
Protocol: To characterize the UPS pathway components involved in SERD-induced ER degradation, we performed CRISPR screens with our ER reporter in the presence multiple SERDs: fulvestrant, GDC-0927, elacestrant, giredestrant, camizestrant, amcenestrant, AZD-9496, brilanestrant, and LSZ-102. […] Taken together, these findings indicate that different classes of SERDs engage distinct ubiquitin ligases and degradation pathways to target ER.
The UPS and tiling CRISPR functional genomics screen was performed following previously described methods.[22] Briefly, the UPS CRISPR library targets 713 E1, E2, E3 ubiquitin ligases, and deubiquitinases and includes controls genes with a total of 2852 guide RNAs, cloned into the pXPR003 backbone. The UBR5 Tiling screen was created by CRISPR-SURF.[29] Viruses were produced in a T-175 format and ten percent by volume of the library virus was added to reporter cell lines in triplicates for transduction. Transduced cells were allowed to recover and expand for nine days, then treated with indicated ligand. Top and bottom 5% of cells by GFP signal were sorted for a total of at least 100,000 cells per replicate. Samples were processed as previously described.[22]
Reporter cell lines were treated with ATRA or 9-cis RA, and then sorted into four populations by eGFP/mCherry fluorescence ratios (Gates A-D), corresponding to the bottom and top 5–10% respectively (Figure S1D).[22],[23] Sorted cells were pelleted, lysed, and processed according to previous studies.[22] Briefly sgRNAs were amplified in two PCRs via Titanium Taq (Takara Bio 639210), Titanium Taq Buffer and 800uM dNTP mix and eight staggered forward primers. The first PCR also contained 200 nM SBS3-Stagger-pXPR003 forward primer and 200 nM SBS12-pXPR003 reverse primer (cycles: 5 minutes at 94°C, 15 × (30 sec at 94°C, 15 sec at 58°C, 30 sec at 72°C), 2 minutes at 72°C). Illumina adapters and barcodes were added in the second PCR (200 nM P5-SBS3 forward primer, 200 nM P7-barcode-SBS12 reverse primer). Samples were pooled and purified by agarose gel-electrophoresis (Qiagen) and NaOAc/isopropanol precipitation. Amplified guides were quantified by next-generation sequencing (Genomics Platform, Broad Institute), and analyzed for enrichment in Gate A over Gate D, representing degradation rescue.

ER [2] = experiment: ER degradation after RNF111 or UBR5 knockdown (reporter K562; T47D western); format: cell-based, human; conditions: K562 ER-GFP, shUBR5 / sgRNF111, Figure S8C, D
Protocol: Cells were analyzed for GFP vs mCherry expression.
Protein concentration was quantified via Pierce BCA Protein Assay Kit (ThermoFisher, 23225), and equal amounts of lysates were run on either SDS-PAGE 3–8% Tris-Acetate or 4–12% Bis-Tris Protein Gels (NuPAGE, ThermoFisher), then transferred to a PVDF membrane (Biorad, Wet Transfer System). Membranes were blocked for 30 minutes to 1 hour at room temperature in Odyssey Blocking Buffer/PBS (LI-COR Biosciences), and incubated with primary antibodies at 4 °C overnight. Stained membranes were washed three times in Tris-buffered saline with Tween 20 (TBS-T) and incubated for 1 hour at room temperature with secondary IRDye-conjugated antibodies (LI-COR Biosciences). Membranes were washed three times in TBS-T before imaging (Odyssey Imaging System, LI-COR Biosciences).

ER and UBR5 = experiment: Co-immunoprecipitation of ER-GFP and UBR5 in K562; format: cell-based, human; conditions: K562 ER-GFP, with MG132, 16 h
Text: Blotting was done as described above.
Fulvestrant GDC-0927 Elacestrant Giredestrant Camizestrant Amcenestrant […]
log2 Ratio log2 Ratio log2 Ratio log2 Ratio log2 Ratio log2 Ratio […]
Amcenestrant Camizestrant GiredestrantBrilanestrant Fulvestrant ElacestrantAmcenestrant Camizestrant Giredestrant Brilanestrant […]
50 FulvestrantBrilanestrant
Figure S8. Non-endogenousligands recruitdifferent E3 ligases to induce ER degradation,Related to Figure 6 […]
VHL are highlighted in red. (C) Degradation (GFP/mCherry) of ER-GFP in K562 reporter cell lines treated with shRNAs targeting UBR5 and the specified SERDs or ER PROTACs. (D) Degradation (GFP/mCherry) of ER-GFP in K562 reporter cell lines treated with sgRNAs targeting RNF111 and the specified SERDs or ER PROTACs. (E) Western blots of T47D cells […]
treated with or without Brilanestrant. (G) Bioluminescence Resonance Energy Transfer (BRET) assay of ER, treated +/- fulvestrant or brilanestrant. (n=6 two sided t-test) (H) Western blots of ER co-immunoprecipitations from K562 ER-GFP reporter cells treated with brilanestrant and MG132 for 16 hours, and blotted with antibodies specific for GFP, and UBR5 as indicated. NS, not […]

ER and RNF111 [3] = experiment: BRET assay of RNF111 and ER; format: cell-based, human
Text: Bioluminescence resonance energy transfer (BRET) experiments were done using the NanoBRET PPI kit (Promega, N1821) according to manufacturer’s instructions.

ER [4] = conditions: cited from earlier work
Text: SERDs are a class of molecules targeting the ER for the treatment of breast cancer. […] Given that UBR5 is similarly recruited to the NR hydrophobic cleft, we hypothesized that fulvestrant and other SERDs may employ a different mechanism for ER degradation. […] One of the best understood SERDs, fulvestrant, drastically remodels the hydrophobic cleft[16],[17] in a manner incompatible with UBR5 or NCOA binding. […] Strikingly, this correlates with clinical utility, hallmarked by the wide use of fulvestrant and recent approval of elacestrant,[53] both of which employ RNF111, in contrast to UBR5 SERDs (Table S2), none of which have been approved for clinical use. The heterogeneity of ER transcriptional pro ...

ER and RNF111 [5] = experiment: Co-immunoprecipitation of FLAG-RNF111 and ER-GFP in 293T; conditions: ± MG132
Protocol: (B) ER reporter degradation following 1 μM of specified SERD treatment. […] UBR5 is highlighted in blue, RNF111, CRBN, VHL are highlighted in red. (D) Western blots of T47D cells transduced with sgRNAs against RNF111 treated with or without fulvestrant. […] (NS, not significant, *p < 0.05, **p < 0.005, ***p < 0.0005, ****p < 0.00005, error bars represent SEM.)
Reporter cells (up to 100 million) were treated with ligand (ATRA, dexamethasone) and allowed to incubate for different time points. […] Lysates were incubated with GFP-Trap Magnetic Agarose beads (ChromoTek, GTMA-20) overnight at 4°C on a rotator. Beads were magnetically removed and washed three times with Pierce IP Lysis Buffer with ligand added before boiling in 1x NuPAGE LDS Sample Buffer (ThermoFischer, NP0007). […] Experiments were repeated and representative images are shown.

SMILES | ER reporter degradation (ER reporter) | E3 ligase used for ER degradation [1] | E3 Ligase (Table S2) [1] | regulated class of ER degradation (RNF111 or UBR5) (ER [2]) | ER and UBR5 interaction by co-immunoprecipitation (ER and UBR5) | ER-RNF111 BRET, significance (mBU) (ER and RNF111 [3]; Figure S8G, n = 6 two sided t-test) | association of RNF111 with ER by BRET (ER and RNF111 [3]; n = 6) | ER degradation (literature) (ER [4]; ref [17], [53]) | ER transcriptional profile following SERD treatment (ER [4]; ref [17],[55]) | effect on helix 12 and ER hydrophobic cleft (ER [4]; ref [54]) | association of RNF111 with ER by co-immunoprecipitation (ER and RNF111 [5])
CC/C(=C(/c1ccc(/C=C/C(=O)O)cc1)c1ccc2[nH]ncc2c1)c1ccc(F)cc1Cl [brilanestrant] | induced ER reporter degradation | required UBR5 for degradation | UBR5 | UBR5 Regulated | increased ER and UBR5 interactions | – | – | – | – | – | –
C[C@]12CC[C@@H]3c4ccc(O)cc4C[C@@H](CCCCCCCCC[S+]([O-])CCCC(F)(F)C(F)(F)F)[C@H]3[C@@H]1CC[C@@H]2O (stereo partly drawn) [fulvestrant] | induced ER reporter degradation | employed a different E3 ligase, RNF111 | RNF111 | RNF111 Regulated | – | * (*p < 0.05) | induces association of RNF111 with ER | lead to ER degradation | most antagonistic of tested SERDs | destabilize helix 12 and block the ER hydrophobic cleft, preventing coactivation | induces association of RNF111 with ER
